In patent publication US6046228A, “Anti-viral pharmaceutical compositions containing saturated 1,2-dithiaheterocyclic compounds and uses thereof” (priority 1999, dated 2000):
Like-named read-outs stand apart in the source and are kept apart here.

Columns and labels:
CEM-SS cells = assay: XTT assay, cytotoxicity (IC50), CEM-SS cells; type: cell-based
Protocol: Initial anti-HIV screening was performed with CEM-SS cells and HIV-1RFusing the XTT cytoprotection assay as previously described (Weislow et al., J. National Cancer Inst. 81: 577-586, (1989)). HIV-1 isolates included common laboratory stains (RF, IIIB and MN), as well as a panel of HIV-1 clinical isolates (Cushman et al., J. Med. Chem. 37: 3040-3050, (1994)). The pyridone-resistant HIV-1A17 isolate (Nunberg et al., J. Virol., 65: 4887-4892 (1991)) was obtained from Emilio Emini at Merck Sharpe and Dohme Laboratories. Phytohemagglutinin-stimulated human peripheral blood lymphocytes (PBLs) and fresh monocyte-macrophage (Mono/MF) cultures were prepared and utilized in antiviral assays as previously described (Rice et al., Proc. Nat'l. Academy Science, USA 90: 9721-9724, (1993)); (Cushman et al., J. Med. Chem. 37: 3040-3050, (1994)). EC50 values for these cultures indicate the drug concentration that provided a 50% reduction in viral p24 production. […] The compounds can be synthesized according to the teachings of Singh et al., Sulfur Letters 8: 107-114, (1988). […] MT-2, MT-4, U1, HeLa-CD4-LTR-β-gal and 174xCEM cells were obtained from the AIDS Research and Reference Program (National Institute of Allergy and Infectious Disease, National Institutes of Health, Bethesda, Md. USA), as were the HIV-2MS and the AZT-resistant HIV-1G910-6 isolates.
Racemate and enantiomers of the cis-1,1-dioxo[1,2]dithiane-4,5-diol were synthesized and evaluated for antiviral activity in the XTT assay as described hereinabove.

[1] = test system: monocyte-macrophage (Mo/M.PHI.) cultures; assay: cytotoxicity in monocyte-macrophage cultures; type: cell-based
Protocol: Initial anti-HIV screening was performed with CEM-SS cells and HIV-1RFusing the XTT cytoprotection assay as previously described (Weislow et al., J. National Cancer Inst. 81: 577-586, (1989)). HIV-1 isolates included common laboratory stains (RF, IIIB and MN), as well as a panel of HIV-1 clinical isolates (Cushman et al., J. Med. Chem. 37: 3040-3050, (1994)). The pyridone-resistant HIV-1A17 isolate (Nunberg et al., J. Virol., 65: 4887-4892 (1991)) was obtained from Emilio Emini at Merck Sharpe and Dohme Laboratories. Phytohemagglutinin-stimulated human peripheral blood lymphocytes (PBLs) and fresh monocyte-macrophage (Mono/MF) cultures were prepared and utilized in antiviral assays as previously described (Rice et al., Proc. Nat'l. Academy Science, USA 90: 9721-9724, (1993)); (Cushman et al., J. Med. Chem. 37: 3040-3050, (1994)). EC50 values for these cultures indicate the drug concentration that provided a 50% reduction in viral p24 production. […] The compounds can be synthesized according to the teachings of Singh et al., Sulfur Letters 8: 107-114, (1988). The 4,5-cis-dihydroxy(1,1-dioxy-1,2,-dithiohexane) compound (NSC 624151) has been abbreviated as 624151 for convenience. MT-2, MT-4, U1, HeLa-CD4-LTR-β-gal and 174xCEM cells were obtained from the AIDS Research and Reference Program (National Institute of Allergy and Infectious Disease, National Institutes of Health, Bethesda, Md. USA), as were the HIV-2MS and the AZT-resistant HIV-1G910-6 isolates.

HIV-1 p7NC protein = target: T1, HIV-1 p7NC protein (Human immunodeficiency virus type 1 group M subtype B, UniProt P04591); assay: Trp37 zinc finger fluorescence assay (zinc ejection from p7NC); type: biochemical; conditions: for p7NC Trp37 Assay (RFU): 25 μM compound; for loss of Trp37 fluorescence of p7NC: 25 μM
T1 construct: recombinant HIV-1 p7NC protein
Protocol: Fluorescence measurements of the Trp^37 residue in the C-terminal zinc finger of the recombinant HIV-1 p7NC protein were performed as previously described (Rice et al., Science 270:1194, 1995). The p7NC protein was prepared at 20 μg/ml in 10 mM sodium phosphate buffer (pH 7.0), treated with 25 μM of each compound, then after indicated time intervals the samples were diluted 1/10 in 10 mM sodium phosphate buffer (pH 7.0) and the fluorescence intensity measured. The excitation and emission wavelengths utilized with the Shimadzu RF5000 spectrofluorimeter were 280 nm and 351 nm, respectively. In an alternate assay, the zinc-selective fluorescent probe N-(6-methoxy-8quinolyl-)-p-toluenesulfonamide (TSQ, Molecular Probes, Eugene, Oreg.) originally described by Fredrickson (J. Neurosci. Meth. 20:91, 1987) was utilized to measure zinc released from the p7NC protein in vitro. Briefly, 2 μM recombinant HIV-1 p7NC protein in 10 mM sodium phosphate buffer, pH 7.0, 10% glycerol was treated with 10 μM 624151 ([…] total volume in 96-well plates), and the time-dependent increase in fluorescence was measured on a Labsystems Fluoroskan II (360 nm excitation filter and 460 nm emission filter) over a period of 2 hours. Induction of alterations of p7NC proteins within intact virions involved treatment of HIV-1MN for 1 hour at 37° C. with 25 μM test compound. Samples were centrifuged 1 hour at 4° C. under 18,000×g to pellet the virus from the drug. Virus pellets were resolved by non-reducing SDS-PAGE and analyzed by immunoblot using monospecific rabbit antisera to the purified p7NC protein.
^b The percent decrease in RFU was calculated based on measurement of
the initial fluorescence of the p7NC protein before and 10 minutes after
treatment with the 25 μM of compound at ambient temperature.
The ability of 624151 to chemically interact with the zinc fingers of the HIV-1 p7NC protein was initially determined by a fluorescence assay (Rice et al., Science 270:1194-1197, (1995)) that measures a loss in intrinsic fluorescence of the tryptophan (Trp^37) residue in the second finger of the protein that occurs upon loss of zinc from the finger (Summers et al., Protein Sci. 1:563, 1992). […] As the 624151 modifies the zinc finger thiolates and the zinc is ejected over time, the metal is bound by the TSQ fluorochrome (FIG. 1(B)).
Sodium Phosphate buffer, pH 7.0 in 1 ml was treated with 25 μM of
compound. At indicated times, the mixture was diluted 1/10 and the
relative fluorescence units (RFU) measured in a Shimadzu RF5000
spectrofluorimeter with […] and Em = 351 mn. Following
loss of zinc from the Cterminal zinc finger, the Trp37 residue folds away
from the # aqueous environment and experiences a loss of fluorescence.

O=S1(=O)C[C@H](O)[C@H](O)CS1 (relative stereo) [NSC 624151, cis-1,1-dioxo[1,2]dithiane-4,5-diol]
IC50 (CEM-SS cells; Homo sapiens, CEM-SS, Table 5, cytotoxicity, read-out: IC50 Duplicates): 116 µM
IC50 (CEM-SS cells; Homo sapiens, CEM-SS, Table 5, cytotoxicity, read-out: IC50 Mean): 122 µM
IC50 (CEM-SS cells; Homo sapiens, CEM-SS, cytotoxicity, CEM-SS cells, read-out: XTT Assay IC50): 184 µM
IC50 (CEM-SS cells; Table 5, cytotoxicity, read-out: IC50 Duplicates): 127 µM
IC50 [1]: > 100 µM
p7NC Trp37 Assay (RFU) (HIV-1 p7NC protein; 0 min): 295 RFU
p7NC Trp37 Assay (RFU) (HIV-1 p7NC protein; 3 min): 136 RFU
p7NC Trp37 Assay (RFU) (HIV-1 p7NC protein; 10 min): 75 RFU
p7NC Trp37 Assay (RFU) (HIV-1 p7NC protein; 30 min): 42 RFU
loss of Trp37 fluorescence of p7NC (HIV-1 p7NC protein; FIG. 1(A), in words): time dependent loss of fluorescence
loss of Trp37 fluorescence of p7NC (HIV-1 p7NC protein; FIG. 1(A), in words, listed as 624151): time-dependent loss of fluorescence
zinc ejection (HIV-1 p7NC protein; FIG. 1(A), in words): promotes zinc ejection
reactivity with the zinc fingers (HIV-1 p7NC protein; in words): reacted aggressively with the p7NC protein zinc fingers
